Experimental data published in US5130485A, “N-hydroxy-N-(3-(2-substituted phenyl)prop-2-enyl)ureas and thioureas useful as 5-lipoxygenase inhibiting agents” (Eli Lilly and Company, priority 1991, dated 1992).

Tests used:
5-LO [1] = test: In vitro inhibition of 5-LO: Schultz-Dale reaction (ovalbumin-induced contraction of tracheal strips from actively sensitized guinea pigs); assay type: tissue-based, guinea pig (male Hartley); conditions: Cavia porcellus; sensitized guinea-pig tracheal strips; antigen (OA) 30 ng/ml; 30 min preincubation; indomethacin 5 μM, pyrilamine 10 μM
Protocol: Male, Hartley strain guinea-pigs (200-250 g) were actively sensitized by three injections of ovalbumin (OA, 10 mg/kg). The OA was administered intraperitoneally on Days 1 and 3 and subcutaneously on Day 5. In vitro experiments were performed 21-25 days later.
On the day of the experiment, guinea pigs were killed by asphyxiation with CO2 and the tracheas removed, cleaned of surrounding connective tissue and cut into sprial strips. Each strip was divided in half for paired experiments. Tissues were placed in 10 ml jacketed tissue baths maintained at 37° C. and attached with cotton thread to Grass force-displacement transducers (FT03C). […] Tracheal strips were bathed in modified Krebs' solution of the following composition (millimolar) NaCl, 118.2; KCl, 4.6; CaCl2.2H2 O, 2.5; MgSO4.7H2 O, 1.2; NaHCO3, 24.8; KH2 PO4, 1.0; and dextrose, 10.0. The buffer contained indomethacin (5 μM) which potentiated the contractions of the cysteinyl leukotrienes (LT) by removing the influence of cyclooxygenase products. The tissue baths were aerated with 95% O2 :5% CO2. Tracheal strips were placed under a resting tension of 2 g, and the tissues were allowed a minimal stabilization period of 60 minutes before undergoing experimentation. Bath fluid was changed at 15 minute intervals during the stabilization period.
Concentration-response curves
Cumulative concentration-response curves were obtained from tracheal strips by increasing the agonist concentration in the organ bath by half-log increments while the previous concentration remained in contact with the tissues van Rossum, Arch, Int. Pharmacodymn Ther., 143, 299-330 (1963). Agonist concentration was increased after reaching the plateau of the contraction elicited by the preceeding concentration. One concentration-response curve was obtained from each tissue. To minimize variability between tissues, contractile responses were expressed as a percentage of the maximal response obtained with carbachol (10 μM), added to the bath at the end of the concentration-response curve. Initially, tissues were challenged with carbachol (10 μM) following the 60 minute stabilization period to insure tissue viability. After recording the maximal response to the initial carbachol challenge, the tissues were washed and re-equilibrated for 60 minutes before starting the experimental protocol.
Determination of EC50 and % Inhibition
To evaluate the effects of novel 5-lipoxygenase inhibitors in the Schultz-Dale reaction, each compound was incubated with the tissues 30 minutes before starting the curves. Vehicle (DMSO) was given to the paired control tissue. Pyrilamine (10 μM) was added to all baths at this time to block the actions of released histamine. Responses obtained at the antigen concentration of 30 ng/ml were recorded in the absence and presence of drug and percent inhibition was calculated for each pair of tissues. IC50 values were determined by linear regression.
LT or carbachol concentration-response curves were used to determine specificity of the agent as a 5-lipoxygenase inhibitor. In these experiments the test compound was incubated as described above. EC50 values, which represent the molar concentration of agonist required to induce 50% of maximal response, was determined by linear regression. Differences in EC50 values, in the presence and absence of test compound were analyzed by Student's t-test with P<0.05 regarded as significant.

5-LO [2] = test: In vivo inhibition of OA-induced increase in tracheal pressure in passively sensitized guinea pigs, oral dosing; set-up: species or system guinea pig (male Hartley); conditions: 2 hr, OA challenge; for inhibition in vivo at 30 mg/kg: Cavia porcellus, read-out: Inhibition of 5-LO In Vivo Percent Inhibition at 30 mg/kg, po, 2 hr.
Protocol: Male Hartley guinea pigs (350-500 g) were passively sensitized against ovalbumin by i.p. administration of 0.3 ml of antiserum 2 days preceeding the experiment. Hyperimmune serum was prepared from actively sensitizing male guinea pigs conditioned with 2 mg of ovalbumin in 50% Complete Freund's Adjuvant i.p. on days 1 and 5. On day 21, the animals were bled and the serum collected and stored at -20° C. On the day of the experiment the passively sensitized guinea pigs were anesthetized with 35 to 40 mg/kg of pentobarbital sodium given i.p. The right jugular vein was cannulated with Tygon microbore tubing (o.d.=03) connected to a syringe for administration of selected drugs. Blood pressure was measured with a Statham pressure transducer connected to a Tygon catheter placed in the left carotid artery. The trachea was cannulated and each animal was ventilated with room air by means of a Harvard rodent respirator set to deliver a tidal volume of 1 ml/100 g body weight with a rate of 60 breaths/minute. Succinylcholine (5 mg/kg) was given i.v. to suppress spontaneous respiration. Intratracheal pressure, an index of total pulmonary resistance, was measured with a Statham pressure transducer connected to a T-tube on the tracheal cannula. […] Body temperature was maintained within normal limits by means of a Deltaphase isothermal pad. Prior to surgery, test compound or vehicle (PEG 400) was administered to each guinea pig by oral gavage and OA challenge was at designated times following oral dosing. The animals were pretreated i.v. with pyrilamine (5 mg/kg), propranolol (1 mg/kg) and indomethacin (10 mg/kg) 5 minutes prior to the OA challenge. OA-induced increase in tracheal pressure was expressed as a percentage of the maximal pressure obtained by clamping the trachea with a hemistat. To determine the effect of each drug, a % inhibition value was calculated from the vehicle and drug treated animals at each concentration tested.

Compound	IC50 (5-LO [1]) [nM]	inhibition in vivo at 30 mg/kg (5-LO [2]) [%]	Inhibition of 5-LO In Vivo Percent Inhibition (dose of 10 mg/kg) (5-LO [2]; 10 mg/kg (footnote a)) [%]
C=CCCSc1ccccc1C=CCN(O)C(N)=O [Example 4, N-hydroxy-N-[3-[2-(3-butenylthio)phenyl]-prop-2-enyl]urea]	390	81	
NC(=O)N(O)CC=Cc1ccccc1SCC1CCCCC1 [Example 5, N-hydroxy-N-[3-[2-(cyclohexylmethylthio)phenyl]-prop-2-enyl]urea]	1200	76	
C#CCCSc1ccccc1C=CCN(O)C(N)=O [Example 2, N-hydroxy-N-[3-[2-(3-butynylthio)phenyl]prop-2-enyl]urea]	1000	50	
NC(=O)N(O)CC=Cc1ccccc1SCC1CC1 [Example 6, N-hydroxy-N-[3-[2-(cyclopropylmethylthio)phenyl]-prop-2-enyl]urea]	620	75	
C#CCSc1ccccc1C=C(C)CN(O)C(N)=O [Example 8, N-hydroxy-N-[2-methyl-3-[2-(2-propynylthio)phenyl]prop-2-enyl]urea]	1800	51	
C#CCSc1ccccc1C=CCN(O)C(N)=O [Example 1, N-hydroxy-N-[3-[2-(2-propynylthio)phenyl]prop-2-enyl]urea]	2100	78	
C#CCSc1c(F)cccc1C=CCN(O)C(N)=O [Example 9, N-hydroxy-N-[3-[3-fluoro-2-(2-propynylthio)phenyl]prop-2-enyl]urea]	1000	93	
CC#CCSc1ccccc1C=CCN(O)C(N)=O [Example 3, N-hydroxy-N-[3-[2-(2-butynylthio)phenyl]prop-2-enyl]urea]	600		30
C#CCOc1ccccc1C=CCN(O)C(N)=O [Example 7, N-hydroxy-N-[3-[2-(2-propynyloxy)phenyl]prop-2-enyl]urea]	2400	93	
